Measurements: patent publication US8921273B2, “Substituted pyridazines having herbicidal action” (BASF SE, priority 2010, dated 2014)

Key:
Assay in all cases: greenhouse herbicidal activity, post-emergence treatment
Details in all cases: application rate 0.5 kg/ha, scale from 0 to 100
[1] = tested on: ECHCG; type: in vivo, Echinochloa crus-galli
Source text: (§1) The seeds of the test plants were sown separately for each species. For the post-emergence treatment, the test plants were first grown to a height of 3 to 15 cm, depending on the plant habit, and only then treated with the active ingredients which had been suspended or emulsified in water. For this purpose, the test plants were either sown directly and grown in the same containers, or they were first grown separately as seedlings and transplanted into the test containers a few days prior to treatment. Depending on the species, the plants were kept at 10-25° C. or 20-35° C. The test period extended over 2 to 4 weeks. During this time, the plants were tended, and their response to the individual treatments was evaluated. Evaluation was carried out using a scale from 0 to 100. 100 means no emergence of the plants, or complete destruction of at least the aerial moieties, and 0 means no damage, or normal course of growth. A good herbicidal activity is given at values of at least 70 and a very good herbicidal activity is given at values of at least 85. The plants used in the greenhouse experiments belonged to the following species: [table]

[2] = tested on: CHEAL; type: in vivo, Chenopodium album
Source text: as §1

[3] = tested on: GALAP; type: in vivo, Galium aparine
Source text: as §1

[4] = tested on: AMARE; type: in vivo, Amaranthus retroflexus
Source text: as §1

| SMILES | herbicidal activity against ECHCG [1] | herbicidal activity against CHEAL [2] | herbicidal activity against GALAP [3] | herbicidal activity against AMARE [4] |
| --- | --- | --- | --- | --- |
| O=c1c(-c2cc(Cl)cc(N3CCOCC3)c2C(F)(F)F)c(O)c2nccnc2n1CC(F)F [I-1, 7-[5-chloro-3-morpholino-2-(trifluoromethyl)phenyl]-5-(2,2-difluoroethyl)-8-hydroxy-pyrido[2,3-b]pyrazin-6-one] | very good herbicidal activity (a very good herbicidal activity is given at values of at least 85) | very good herbicidal activity (a very good herbicidal activity is given at values of at least 85) | – | – |
| O=c1c(-c2cccc(C3=NOCC3)c2C(F)(F)F)c(O)c2nccnc2n1CC(F)F [I-2, 5-(2,2-difluoroethyl)-7-[3-(4,5-dihydroisoxazol-3-yl)-2-(trifluoromethyl)phenyl]-8-hydroxy-pyrido[2,3-b]pyrazin-6-one] | – | – | very good herbicidal activity (a very good herbicidal activity is given at values of at least 85) | very good herbicidal activity (a very good herbicidal activity is given at values of at least 85) |
